Among the data in patent publication US12252524B2, “GIP/GLP1 co-agonist compounds” (Eli Lilly and Company, priority 2018, dated 2025) are Ki and EC50 values, retold here.

Numbered stars: 1 amine (or outer) side, 2 acyl side, 3 side chain; on linkers, the order of the positions; unused ones are H or OH. Square brackets hold non-standard residues; d marks the D form. Side chains are listed from the residue outwards. Peptide text beside a SMILES is read from it. * marks the point of attachment. C20 diacid = O=C(O)CCCCCCCCCCCCCCCCCCC(=O)*; γGlu = O=C(O)[C@H](CCC(=O)[*:2])N[*:1]; AEEA = NCCOCCOCC(=O)O; Aib = CC(C)(N)C(=O)O Bounds are passed on as bounds.

One experiment concerns the target T1, human Gcg receptor (Homo sapiens, UniProt P47871).
T1 construct: expressed in transfected cells; crude membranes
Put plainly: [125I]-Glucagon binding (SPA), human Gcg receptor. The settings on record: read-out: hGLcgR Ki, nM (SEM, n). Put shortly:
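Crude membranes from cells expressing the receptor, prepared by hypotonic lysis in 50 mM Tris HCl pH 7.5 with protease inhibitors, homogenization and differential centrifugation, were used in a WGA-bead SPA. Binding buffer: 25 mM HEPES pH 7.4, 2.5 mM CaCl2, 1 mM MgCl2, bacitracin, Tween-20.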

The target of experiment [1] is T2, gastric inhibitory peptide receptor (GIPR) (Homo sapiens, UniProt P48546).
T2 sequence (P48546 22-466): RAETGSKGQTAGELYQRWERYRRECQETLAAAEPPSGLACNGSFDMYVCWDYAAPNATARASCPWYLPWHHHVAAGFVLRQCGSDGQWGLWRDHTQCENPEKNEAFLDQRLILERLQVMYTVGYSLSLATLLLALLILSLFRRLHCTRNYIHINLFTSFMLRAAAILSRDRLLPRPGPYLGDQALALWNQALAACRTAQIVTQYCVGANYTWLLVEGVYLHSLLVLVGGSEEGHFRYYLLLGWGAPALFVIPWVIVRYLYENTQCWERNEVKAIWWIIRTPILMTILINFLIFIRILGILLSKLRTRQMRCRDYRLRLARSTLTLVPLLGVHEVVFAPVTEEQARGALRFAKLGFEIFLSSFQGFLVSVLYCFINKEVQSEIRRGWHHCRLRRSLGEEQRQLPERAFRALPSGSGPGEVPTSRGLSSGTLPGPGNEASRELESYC
Put plainly: cAMP pharmacological functional assay in presence of casein, hGIPR. The settings on record: HEK293 cells expressing hGIPR, 0.1% Casein, geometric mean; read-out: hGIPR cAMP Rel EC50 nM (SEM, n). It is filed as cell-based.

Experiment [2] addresses human GLP-1 receptor (GLP-1R) (Homo sapiens, UniProt P43220). The experiment is described as follows: cAMP pharmacological functional assay in presence of casein, hGLP-1R. The settings on record: HEK293 cells expressing hGLP-1R, 0.1% Casein, geometric mean; read-out: hGLP1R cAMP Rel EC50 nM (SEM, n). Type of experiment: cell-based.
The next experiment concerns the target human GLP-1R (Homo sapiens, UniProt P43220). Put plainly: [125I]-GLP-1 binding (SPA), human GLP-1 receptor. Details: expressed in transfected cells; crude membranes. The conditions noted are these: read-out: hGLP1R Ki, (nM) (SEM, n). Put shortly:
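Frozen cell pellets are lysed on ice in hypotonic Tris buffer, pH 7.5, homogenized, and centrifuged to a membrane pellet resuspended at about 1 to 3 mg/mL. Binding is then measured in HEPES-based buffer at pH 7.4, and curves are fitted to give IC50 and Ki.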

The next experiment has as its target T3, human GIP receptor (Homo sapiens, UniProt P48546).
T3 construct: expressed in transfected cells; crude membranes
T3 sequence (P48546 22-466): T2 sequence (P48546 22-466)
The experiment is described as follows: [125I]-GIP binding (SPA), human GIP receptor. The conditions noted are these: read-out: hGIPR Ki, nM (SEM, n).

T1 sequence (P47871 26-477): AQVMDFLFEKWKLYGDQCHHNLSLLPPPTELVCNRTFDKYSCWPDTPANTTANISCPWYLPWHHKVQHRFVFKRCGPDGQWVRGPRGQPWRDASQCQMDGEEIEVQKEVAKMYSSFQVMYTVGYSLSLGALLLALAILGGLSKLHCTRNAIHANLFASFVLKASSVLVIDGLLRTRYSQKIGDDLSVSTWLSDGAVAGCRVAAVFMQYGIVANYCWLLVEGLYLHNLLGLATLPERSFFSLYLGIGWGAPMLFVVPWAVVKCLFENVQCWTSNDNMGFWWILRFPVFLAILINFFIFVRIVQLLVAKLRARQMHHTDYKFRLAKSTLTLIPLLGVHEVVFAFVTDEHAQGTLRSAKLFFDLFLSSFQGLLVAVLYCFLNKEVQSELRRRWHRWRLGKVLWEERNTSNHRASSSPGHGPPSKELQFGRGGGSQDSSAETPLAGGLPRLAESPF
Chain of human GLP-1R (P43220 24-463): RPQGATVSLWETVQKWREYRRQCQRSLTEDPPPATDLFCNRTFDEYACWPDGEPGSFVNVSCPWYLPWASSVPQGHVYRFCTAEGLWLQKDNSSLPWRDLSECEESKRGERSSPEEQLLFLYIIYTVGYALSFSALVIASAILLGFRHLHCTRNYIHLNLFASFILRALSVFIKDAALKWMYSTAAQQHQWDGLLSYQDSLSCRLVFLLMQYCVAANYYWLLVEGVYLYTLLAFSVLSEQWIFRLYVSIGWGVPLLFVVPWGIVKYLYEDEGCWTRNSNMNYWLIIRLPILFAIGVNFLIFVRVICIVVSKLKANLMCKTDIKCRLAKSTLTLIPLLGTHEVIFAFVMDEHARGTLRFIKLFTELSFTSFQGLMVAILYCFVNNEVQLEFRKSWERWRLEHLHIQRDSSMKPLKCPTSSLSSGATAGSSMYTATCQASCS
Chain of human GLP-1 receptor (GLP-1R) (P43220 24-463): as above

In the case of `CC[C@H](C)[C@H](NC(=O)[C@H](CC(C)C)NC(=O)[C@H](Cc1ccc(O)cc1)NC(=O)[C@H](CCC(=O)O)NC(=O)[C@@H](NC(=O)[C@H](Cc1ccccc1)NC(=O)[C@H](C)NC(=O)C(C)(C)NC(=O)[C@H](CCC(N)=O)NC(=O)[C@H](C)NC(=O)[C@H](CCCCNC(=O)COCCOCCNC(=O)COCCOCCNC(=O)CC[C@H](NC(=O)CCCCCCCCCCCCCCCCCCC(=O)O)C(=O)O)NC(=O)[C@H](CCCCN)NC(=O)[C@H](CC(=O)O)NC(=O)[C@H](CC(C)C)NC(=O)[C@H](CC(C)C)NC(=O)[C@@H](NC(=O)[C@H](CO)NC(=O)[C@H](Cc1ccc(O)cc1)NC(=O)[C@H](CC(=O)O)NC(=O)[C@H](CO)NC(=O)[C@@H](NC(=O)[C@H](Cc1ccccc1)NC(=O)[C@@H](NC(=O)CNC(=O)[C@H](CCC(=O)O)NC(=O)C(C)(C)NC(=O)[C@@H](N)Cc1ccc(O)cc1)[C@@H](C)O)[C@@H](C)O)[C@@H](C)CC)[C@@H](C)CC)C(=O)N[C@@H](CCC(=O)O)C(=O)N[C@@H](C)C(=O)NCC(=O)N1CCC[C@H]1C(=O)N[C@@H](CO)C(=O)N[C@@H](CO)C(=O)NCC(=O)N[C@@H](C)C(=O)N1CCC[C@H]1C(=O)N1CCC[C@H]1C(=O)N1CCC[C@H]1C(=O)N[C@@H](CO)C(N)=O` [Example 86] (H-Y[Aib]EGTFTSDYSILLDKK([AEEA-AEEA-γGlu-C20 diacid])AQ[Aib]AFIEYLIEAGPSSGAPPPS-NH2), the inhibition constant Ki (usually a dissociation constant, usually derived from enzyme kinetics or from competition with a known ligand) on human Gcg receptor was over 1060 nM; on human GLP-1R, 3.74 nM; at human GIP receptor, 0.0401 nM. Further, the 50% effective concentration (EC50) (commonly the concentration that produces a half-maximal response) in experiment [1] was 0.0452 nM; in experiment [2], 0.271 nM.

For `CC[C@H](C)[C@H](NC(=O)[C@H](CC(C)C)NC(=O)[C@H](Cc1ccc(O)cc1)NC(=O)[C@H](CCC(=O)O)NC(=O)[C@@H](NC(=O)[C@H](Cc1ccccc1)NC(=O)[C@H](C)NC(=O)C(C)(C)NC(=O)[C@H](CCC(N)=O)NC(=O)[C@H](C)NC(=O)[C@H](CCCCNC(=O)COCCOCCNC(=O)COCCOCCNC(=O)CC[C@H](NC(=O)CCCCCCCCCCCCCCCCCCC(=O)O)C(=O)O)NC(=O)[C@H](CCCCN)NC(=O)[C@H](CC(=O)O)NC(=O)[C@H](CC(C)C)NC(=O)[C@H](CC(C)C)NC(=O)[C@@H](NC(=O)[C@H](CO)NC(=O)[C@H](Cc1ccc(O)cc1)NC(=O)[C@H](CC(=O)O)NC(=O)[C@H](CO)NC(=O)[C@@H](NC(=O)[C@H](Cc1ccccc1)NC(=O)[C@@H](NC(=O)CNC(=O)[C@H](CCC(=O)O)NC(=O)[C@]1(C)CCCN1C(=O)[C@@H](N)Cc1ccc(O)cc1)[C@@H](C)O)[C@@H](C)O)[C@@H](C)CC)[C@@H](C)CC)C(=O)N[C@@H](CCC(=O)O)C(=O)NCC(=O)NCC(=O)N1CCC[C@H]1C(=O)N[C@@H](CO)C(=O)N[C@@H](CO)C(=O)NCC(=O)N[C@@H](C)C(=O)N1CCC[C@H]1C(=O)N1CCC[C@H]1C(=O)N1CCC[C@H]1C(=O)N[C@@H](CO)C(N)=O` [Example 87], the figures for the inhibition constant Ki at human Gcg receptor, at human GLP-1R and on human GIP receptor were 278 nM, 1.79 nM and 0.034 nM, respectively. The EC50 in experiment [1] worked out at 0.0945 nM; in experiment [2], 0.0801 nM.

As to `CC[C@H](C)[C@H](NC(=O)[C@H](CC(C)C)NC(=O)[C@H](Cc1ccc(O)cc1)NC(=O)[C@H](CCC(=O)O)NC(=O)[C@@H](NC(=O)[C@H](Cc1ccccc1)NC(=O)[C@H](C)NC(=O)C(C)(C)NC(=O)[C@H](CCC(N)=O)NC(=O)[C@H](C)NC(=O)[C@H](CCCCNC(=O)COCCOCCNC(=O)COCCOCCNC(=O)CC[C@H](NC(=O)CCCCCCCCCCCCCCCCCCC(=O)O)C(=O)O)NC(=O)[C@H](CCCCN)NC(=O)[C@H](CC(=O)O)NC(=O)[C@H](CC(C)C)NC(=O)[C@H](CC(C)C)NC(=O)[C@@H](NC(=O)[C@H](CO)NC(=O)[C@H](Cc1ccc(O)cc1)NC(=O)[C@H](CC(=O)O)NC(=O)[C@H](CO)NC(=O)[C@@H](NC(=O)[C@H](Cc1ccccc1)NC(=O)[C@@H](NC(=O)CNC(=O)[C@H](CCC(=O)O)NC(=O)[C@@H]1CCCN1C(=O)[C@@H](N)Cc1ccc(O)cc1)[C@@H](C)O)[C@@H](C)O)[C@@H](C)CC)[C@@H](C)CC)C(=O)N[C@@H](CCC(=O)O)C(=O)NCC(=O)NCC(=O)N1CCC[C@H]1C(=O)N[C@@H](CO)C(=O)N[C@@H](CO)C(=O)NCC(=O)N[C@@H](C)C(=O)N1CCC[C@H]1C(=O)N1CCC[C@H]1C(=O)N1CCC[C@H]1C(=O)N[C@@H](CO)C(N)=O` [Example 88] (H-YPEGTFTSDYSILLDKK([AEEA-AEEA-γGlu-C20 diacid])AQ[Aib]AFIEYLIEGGPSSGAPPPS-NH2), the Ki is 545 nM at human Gcg receptor, 4.24 nM at human GLP-1R and 0.0717 nM on human GIP receptor. Moreover, the concentration for a half-maximal effect (EC50) in experiment [1] was found to be 0.475 nM; in experiment [2] it was 0.64 nM.

With `CC[C@H](C)[C@H](NC(=O)[C@H](CC(C)C)NC(=O)[C@H](Cc1ccc(O)cc1)NC(=O)[C@H](CCC(=O)O)NC(=O)[C@@H](NC(=O)[C@H](Cc1ccccc1)NC(=O)[C@H](C)NC(=O)C(C)(C)NC(=O)[C@H](CCC(N)=O)NC(=O)[C@H](C)NC(=O)[C@H](CCCCNC(=O)COCCOCCNC(=O)COCCOCCNC(=O)CC[C@H](NC(=O)CCCCCCCCCCCCCCCCCCC(=O)O)C(=O)O)NC(=O)[C@H](CCCCN)NC(=O)[C@H](CC(=O)O)NC(=O)[C@H](CC(C)C)NC(=O)[C@H](CC(C)C)NC(=O)[C@@H](NC(=O)[C@H](CO)NC(=O)[C@H](Cc1ccc(O)cc1)NC(=O)[C@H](CC(=O)O)NC(=O)[C@H](CO)NC(=O)[C@@H](NC(=O)[C@H](Cc1ccccc1)NC(=O)[C@@H](NC(=O)CNC(=O)[C@H](CCCC(=O)O)NC(=O)C(C)(C)NC(=O)[C@@H](N)Cc1ccc(O)cc1)[C@@H](C)O)[C@@H](C)O)[C@@H](C)CC)[C@@H](C)CC)C(=O)N[C@@H](CCC(=O)O)C(=O)NCC(=O)NCC(=O)N1CCC[C@H]1C(=O)N[C@@H](CO)C(=O)N[C@@H](CO)C(=O)NCC(=O)N[C@@H](C)C(=O)N1CCC[C@H]1C(=O)N1CCC[C@H]1C(=O)N1CCC[C@H]1C(=O)N[C@@H](CO)C(N)=O` [Example 89], the results for the inhibition constant (Ki) on human Gcg receptor, on human GLP-1R and on human GIP receptor were 324 nM, 2.64 nM and 0.045 nM, respectively. Further, the EC50 in experiment [1] came out at 0.119 nM; in experiment [2] it was 0.335 nM.

For the molecule `CC[C@H](C)[C@H](NC(=O)[C@H](CC(C)C)NC(=O)[C@H](Cc1ccc(O)cc1)NC(=O)[C@H](CCC(=O)O)NC(=O)[C@@H](NC(=O)[C@H](Cc1ccccc1)NC(=O)[C@H](C)NC(=O)C(C)(C)NC(=O)[C@H](CCC(N)=O)NC(=O)[C@H](C)NC(=O)[C@H](CCCCNC(=O)COCCOCCNC(=O)COCCOCCNC(=O)CC[C@H](NC(=O)CCCCCCCCCCCCCCCCCCC(=O)O)C(=O)O)NC(=O)[C@H](CCCCN)NC(=O)[C@H](CC(=O)O)NC(=O)[C@H](CC(C)C)NC(=O)[C@H](CC(C)C)NC(=O)[C@@H](NC(=O)[C@H](CO)NC(=O)[C@H](Cc1ccc(O)cc1)NC(=O)[C@H](CC(=O)O)NC(=O)[C@H](CO)NC(=O)[C@@H](NC(=O)[C@H](Cc1ccccc1)NC(=O)[C@@H](NC(=O)CNC(=O)[C@H](CC(N)=O)NC(=O)C(C)(C)NC(=O)[C@@H](N)Cc1ccc(O)cc1)[C@@H](C)O)[C@@H](C)O)[C@@H](C)CC)[C@@H](C)CC)C(=O)N[C@@H](CCC(=O)O)C(=O)NCC(=O)NCC(=O)N1CCC[C@H]1C(=O)N[C@@H](CO)C(=O)N[C@@H](CO)C(=O)NCC(=O)N[C@@H](C)C(=O)N1CCC[C@H]1C(=O)N1CCC[C@H]1C(=O)N1CCC[C@H]1C(=O)N[C@@H](CO)C(N)=O` [Example 90] (H-Y[Aib]NGTFTSDYSILLDKK([AEEA-AEEA-γGlu-C20 diacid])AQ[Aib]AFIEYLIEGGPSSGAPPPS-NH2; N-terminus assumed), the results for the Ki on human Gcg receptor, at human GLP-1R and on human GIP receptor were 245 nM, 4.76 nM and 0.0472 nM, respectively. For the same molecule, the 50% effective concentration (EC50) in experiment [1] came to 0.0361 nM; in experiment [2], 0.532 nM.
